# In article PMC6149822, “A New Series of Pyrrole-Based Chalcones: Synthesis and Evaluation of Antimicrobial Activity, Cytotoxicity, and Genotoxicity” (Molecules : A Journal of Synthetic Chemistry and Natural …, 2017):
# Key:
# C. krusei cells = test: Flow cytometry live/dead analysis (TO/PI); type: cell-based, Candida krusei; details: 25 µg/mL, 4 h
# Description: In order to investigate the effects of compounds 7 and 9 on the integrity of C. krusei cells, flow cytometry was used with BD cell viability kits. Live cells are impermeable to dyes such as PI since they have intact membranes. TO is a permeant dye and enters live and dead cells to varying degrees. The fluorescent signal from TO in viable cells allows their enumeration, even when debris in the cell preparation contaminates a scatter gate around the cells. Thus, the combination of these two dyes provides a rapid and reliable method for discriminating live and dead eukaryotic cells, including yeasts. All steps were performed according to manufacturers’ recommendations. Briefly, Candida cells were cultured at 35 °C in SDB until late log phase. The cells were centrifuged and washed with phosphate-buffered saline (PBS) at pH = 7.0. Suspensions containing 2 × 10^3 cells/mL were incubated with compounds 7 and 9, and ketoconazole as a reference drug, for 4 h at 35 °C, with shaking (200 r.p.m.). […] Suspensions of treated and untreated cells were incubated for 30 min in the presence of 2 µL of PI and 2 µL of TO, in the dark, at room temperature. The cell suspensions were analysed in a BD Accuri C6 flow cytometer (Becton-Dickinson, Mansfield, MA, USA). The cell scattergram (forward scatter: FS, side scatter: SS), the autofluorescence (without fluorocrome), and the intensity of fluorescence at FL1 (green fluorescence, 525 nm) and FL2 (red fluorescence, 620 nm) were recorded using a logarithmic scale.
# C. krusei (ATCC 6258) = test: Microdilution susceptibility assay (MIC); type: cell-based, Candida krusei; details: Pichia kudriavzevii, ATCC6258
# Method: (§1) Compounds 1–10 were screened for their antimicrobial activity against gram-negative bacteria, gram-positive bacteria, and yeasts, listed in Table 1. Bacteria were grown in Mueller-Hinton Broth and yeasts were grown in Sabouraud Dextrose Broth (SDB) during experiments. Overnight cultures were prepared routinely by subculturing of stock culture onto Mueller-Hinton Agar for bacteria and Sabouraud Dextrose Agar for yeasts.
# (§2) Microdilution susceptibility assay was used for the determination of antibacterial and anticandidal efficacy of compounds 1–10. Chloramphenicol and ketoconazole were used as positive controls for bacteria and yeasts, respectively. All experiments were designed according to the Clinical Laboratory Standards Institute (CLSI). All chemicals were dissolved in dimethyl sulfoxide (DMSO) to obtain stock solution (10 mg/mL). Two-fold serial dilutions (800, 400, 200...0.78 µg/mL) of the compounds were prepared from stock solutions with dH2O. 100 µL of each solution was transferred to 96-well microtiter plates and 100 µL of 10^6 CFU/mL of bacteria and 2 × 10^3 of CFU/mL yeast were added to related wells. As negative controls, wells including microorganisms without agents and wells including agents without microorganisms were used. The plates were kept at 35 °C for 18–20 h and the growth was determined with resazurin (20 mg/mL). Assays were carried out in triplicate.
# [1] = system: C. parapsilosis (ATCC 22019); test: Microdilution susceptibility assay (MIC); type: cell-based, Candida parapsilosis; details: Lodderomyces parapsilosis, ATCC22019
# Method: as §1, §2
# C. albicans (ATCC 90028) = test: Microdilution susceptibility assay (MIC); type: cell-based; details: Candida albicans, ATCC90028
# Method: as §1, §2
# C. glabrata (ATCC 90030) = test: Microdilution susceptibility assay (MIC); type: cell-based, Candida glabrata; details: Nakaseomyces glabratus, ATCC90030
# Method: as §1, §2
# E. faecalis (ATCC 29212) [2] = test: Microdilution susceptibility assay (MIC); type: cell-based; details: Enterococcus faecalis, ATCC29212
# Method: as §1, §2
# [3] = system: K. pneumoniae (ATCC 700603); test: Microdilution susceptibility assay (MIC); type: cell-based; details: Klebsiella pneumoniae, ATCC700603
# Method: as §1, §2
# E. coli (ATCC 25922) = test: Microdilution susceptibility assay (MIC); type: cell-based; details: Escherichia coli, ATCC25922
# Method: as §1, §2
# E. faecalis (ATCC 51299) [4] = test: Microdilution susceptibility assay (MIC); type: cell-based; details: Enterococcus faecalis, ATCC51299
# Method: as §1, §2
# S. aureus (ATCC 25923) = test: Microdilution susceptibility assay (MIC); type: cell-based; details: Staphylococcus aureus, ATCC25923
# Method: as §1, §2
# C6 rat glioma cell line = test: MTT assay; type: cell-based; details: Rattus norvegicus, C6
# Method: (§3) The anticancer effects of compounds 1–10 on A549 human lung adenocarcinoma (ATCC® CCL-185™), HepG2 human hepatocellular carcinoma (ATCC® HB-8065™), and C6 rat glioma (ATCC® CCL107™) cell lines were assessed using 3-(4,5-Dimethylthiazol-2-yl)-2,5-diphenyltetrazolium bromide (MTT) assay, whereas the selectivity of compounds 1–10 was tested using NIH/3T3 mouse embryonic fibroblast cell line (ATCC® CRL-1658™, London, UK). All cell lines were incubated according to the supplier’s recommendations. The cells were seeded as 1 × 10^4 cells into each well of the 96-well plates. MTT assay was performed as previously described. The compounds were tested between the concentrations equal to 1 mM and 0.000316 mM (1.0, 0.316, 0.10, 0.0316, 0.01, 0.00316, 0.001, 0.000316 mM). Stock solutions of compounds were prepared in dimethyl sulfoxide (DMSO) and further dilutions were made with fresh culture medium. The final DMSO concentration was under 1% [34] and cisplatin was used as a positive control. Inhibition % was calculated for each concentration according to the formula below, and IC50 values were determined by plotting a dose–response curve of inhibition % versus compound concentrations tested. All experiments were performed in quadruplicate.Inhibition % = 100 − [(ODtest compound − ODblank/ODsolvent control − ODblank)] × 100(1)
# [5] = system: HepG2 human hepatocellular carcinoma cell line; test: MTT assay; type: cell-based; details: Homo sapiens, HepG2
# Method: as §3
# [6] = system: A549 human lung adenocarcinoma cell line; test: MTT assay; type: cell-based; details: Homo sapiens, A549
# Method: as §3
# [7] = system: NIH/3T3 mouse embryonic fibroblast cell line; test: MTT assay; type: cell-based; details: Mus musculus, NIH3T3, healthy cells for selectivity
# Method: as §3
# E. faecalis (ATCC 29212) [8] = test: ATP luminescence microbial cell viability assay; type: cell-based, Enterococcus faecalis; details: 24 h treatment, result in words
# Method: (§4) A model from BioTek Instruments Inc. combined with a BacTiter-Glo^TM Microbial Cell Viability assay (Promega Corp., Madison, WI, USA) was used to provide a sensitive and rapid method for determining the number of viable microbial cells in culture based on quantitation of the ATP present. […] After incubation, cultures were added into the wells (final concentration of bacteria was 5 × 10^5 CFU/mL and 2.5 × 10^6 CFU/mL for yeasts). After adding the BacTiter reagent, incubation time for bacteria and yeasts was 5 min and 15 min, respectively.
# (§5) The assay generates a “glow-type” luminescent signal, produced by the luciferase reaction. Briefly, after chemicals and strains were incubated for 24 h, 100 µL of the culture was taken from each well and mixed with the same volume of the BacTiter-Glo™ reagent in a white, opaque-walled microtiter plate. Control wells containing medium without cells were prepared to obtain a value for background luminescence. Cells without compound were used as an ATP-positive control. The microplates were further incubated under agitation for 7 min. Bioluminescence was recorded in a multi-detection microplate reader (BioTek Synergy 2 Multi-Mode Microplate Reader, BioTek Instruments, Winooski, VT, USA). In Figure 3, results were given as percentage of untreated control, which is set at 100%. Experiments were performed in triplicate and each sample was measured in four replicates.
# E. faecalis (ATCC 51299) [9] = test: ATP luminescence microbial cell viability assay; type: cell-based, Enterococcus faecalis; details: 24 h treatment, result in words
# Method: as §4, §5
SMILES,Dead Cell % (C. krusei cells) [%],Live Cell % (C. krusei cells) [%],MIC (C. krusei (ATCC 6258)) [µg/mL],MIC [1] [µg/mL],MIC (C. albicans (ATCC 90028)) [µg/mL],MIC (C. glabrata (ATCC 90030)) [µg/mL],MIC (E. faecalis (ATCC 29212) [2]) [µg/mL],MIC [3] [µg/mL],MIC (E. coli (ATCC 25922)) [µg/mL],MIC (E. faecalis (ATCC 51299) [4]) [µg/mL],MIC (S. aureus (ATCC 25923)) [µg/mL],IC50 (C6 rat glioma cell line) [µg/mL],IC50 [5] [µg/mL],IC50 [6] [µg/mL],IC50 [7] [µg/mL],melting point [°C],antimicrobial activity in ATP bioluminescence assay (E. faecalis (ATCC 29212) [8]),antimicrobial activity in ATP bioluminescence assay (E. faecalis (ATCC 51299) [9])
"CC(=O)N1CCN(c2ccc(OCC3COC(Cn4ccnc4)(c4ccc(Cl)cc4Cl)O3)cc2)CC1 (centres unmarked) [Ketoconazole, reference compound]",18.4,81.2,50,50,50,100,–,–,–,–,–,–,–,–,–,–,–,–
"O=C(N[C@H](CO)[C@H](O)c1ccc([N+](=O)[O-])cc1)C(Cl)Cl [Chloramphenicol, reference compound]",–,–,–,–,–,–,50,50,25,100,25,–,–,–,–,–,–,–
"Cn1cccc1C(=O)C=Cc1ccc(-c2ccccc2Cl)o1 [Compound 5, 1-(1-Methyl-1H-pyrrol-2-yl)-3-(5-(2-chlorophenyl)furan-2-yl)prop-2-en-1-one]",–,–,200,100,200,200,200,200,400,200,400,> 311,31,311,45,95 to 96,–,–
"Cn1cccc1C(=O)C=Cc1ccc(-c2cccc([N+](=O)[O-])c2)o1 [Compound 2, 1-(1-Methyl-1H-pyrrol-2-yl)-3-(5-(3-nitrophenyl)furan-2-yl)prop-2-en-1-one]",–,–,100,100,100,100,100,200,100,100,200,258,277,322,> 322,123 to 124,sensitive,antimicrobial activity close to chloramphenicol
"Cn1cccc1C(=O)C=Cc1ccc(-c2ccc([N+](=O)[O-])cc2)o1 [Compound 1, 1-(1-Methyl-1H-pyrrol-2-yl)-3-(5-(4-nitrophenyl)furan-2-yl)prop-2-en-1-one]",–,–,200,100,100,200,100,200,100,200,200,84,322,0.3,109,179 to 181,sensitive,–
